What was measured:
Cytochrome P450 2D6 = Cytochrome P450 2D6 (Homo sapiens, UniProt P10635); conditions: bti-tn-5b1-4; note: in other assays of this panel Not Active means under 50% inhibition at 10 µM
[1] = molecular target: T1, Neuropeptide Y receptor type 1 (Homo sapiens, UniProt P25929); format: cell membranes, Membrane; conditions: sk-n-mc; note: in other assays of this panel Not Active means under 50% inhibition at 10 µM
T1 sequence (P25929 whole entry): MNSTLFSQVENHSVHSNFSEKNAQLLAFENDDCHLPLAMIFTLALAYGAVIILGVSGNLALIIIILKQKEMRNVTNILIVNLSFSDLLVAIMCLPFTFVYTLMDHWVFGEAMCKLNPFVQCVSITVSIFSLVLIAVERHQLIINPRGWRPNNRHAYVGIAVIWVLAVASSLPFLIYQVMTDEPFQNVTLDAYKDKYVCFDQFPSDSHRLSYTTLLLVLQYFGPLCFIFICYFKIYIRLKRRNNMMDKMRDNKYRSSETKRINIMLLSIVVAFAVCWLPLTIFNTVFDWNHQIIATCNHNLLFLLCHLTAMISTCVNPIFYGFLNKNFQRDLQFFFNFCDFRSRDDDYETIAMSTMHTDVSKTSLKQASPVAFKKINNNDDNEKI

Adenosine receptor A1 = molecular target: T2, Adenosine receptor A1 (Homo sapiens, UniProt P30542); format: cell membranes, CHO, Membrane; conditions: cho;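 note: radioligand binding assay at the adenosine A1 receptor, with DPCPX serving as the labelled ligand; in other assays of this panel Not Active means under 50% inhibition at 10 µM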
T2 sequence (P30542 whole entry): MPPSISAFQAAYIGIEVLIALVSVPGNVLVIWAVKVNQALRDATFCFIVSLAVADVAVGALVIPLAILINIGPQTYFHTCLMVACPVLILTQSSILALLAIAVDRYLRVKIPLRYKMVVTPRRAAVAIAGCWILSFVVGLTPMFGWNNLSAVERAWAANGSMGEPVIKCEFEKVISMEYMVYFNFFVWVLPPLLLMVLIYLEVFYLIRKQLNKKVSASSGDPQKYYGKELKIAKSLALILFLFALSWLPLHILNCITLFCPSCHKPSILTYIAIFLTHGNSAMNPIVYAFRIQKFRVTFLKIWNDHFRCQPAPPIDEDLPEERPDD

[2] = molecular target: T3, 3-hydroxy-3-methylglutaryl-coenzyme A reductase (Homo sapiens, UniProt P04035); parameters: species or system Escherichia coli;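 note: enzyme inhibition assay of HMG-CoA reductase using radiolabeled [14C]HMG-CoA as substrate; in other assays of this panel Not Active means under 50% inhibition at 10 µM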
T3 sequence (P04035 whole entry): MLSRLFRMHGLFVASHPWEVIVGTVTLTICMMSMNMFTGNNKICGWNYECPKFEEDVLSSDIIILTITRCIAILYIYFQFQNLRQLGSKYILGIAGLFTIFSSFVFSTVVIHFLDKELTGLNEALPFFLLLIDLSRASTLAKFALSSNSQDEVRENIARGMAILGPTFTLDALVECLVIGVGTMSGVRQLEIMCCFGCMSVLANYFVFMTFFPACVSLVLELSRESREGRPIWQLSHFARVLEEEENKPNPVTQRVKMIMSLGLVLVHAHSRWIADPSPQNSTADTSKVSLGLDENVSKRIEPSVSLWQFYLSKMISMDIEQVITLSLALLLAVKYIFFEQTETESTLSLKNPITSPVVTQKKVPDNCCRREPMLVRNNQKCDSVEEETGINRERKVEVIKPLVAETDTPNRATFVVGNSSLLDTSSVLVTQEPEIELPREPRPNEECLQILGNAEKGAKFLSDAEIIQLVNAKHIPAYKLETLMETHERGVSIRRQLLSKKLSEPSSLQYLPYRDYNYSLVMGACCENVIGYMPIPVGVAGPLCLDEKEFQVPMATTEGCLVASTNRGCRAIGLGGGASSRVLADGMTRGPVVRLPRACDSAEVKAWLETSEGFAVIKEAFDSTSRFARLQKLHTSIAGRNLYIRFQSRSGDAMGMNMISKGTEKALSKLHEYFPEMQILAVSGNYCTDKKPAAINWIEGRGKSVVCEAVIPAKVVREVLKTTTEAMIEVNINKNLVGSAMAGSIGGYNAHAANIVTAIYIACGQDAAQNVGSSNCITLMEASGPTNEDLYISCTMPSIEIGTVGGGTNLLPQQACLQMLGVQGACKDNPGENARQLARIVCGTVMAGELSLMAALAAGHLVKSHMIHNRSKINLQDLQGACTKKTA

[3] = DRUGMATRIX: Nicotinic Acetylcholine radioligand binding (ligand: [125I] Epibatidine); format: cell membranes, Membrane; conditions: imr-32; Not Active = under 50% inhibition at 10 µM
[4] = DRUGMATRIX: Tumor Necrosis Factor (TNF), Non-Selective radioligand binding (ligand: [125I] TNF-alpha); format: cell membranes, Membrane; conditions: u-937; Not Active = under 50% inhibition at 10 µM
[5] = DRUGMATRIX: Glutamate, NMDA, Phencyclidine radioligand binding (ligand: [3H] TCP); format: cell membranes, Rattus norvegicus, Wistar, Cerebral cortex, Membrane; conditions: Not Active = under 50% inhibition at 10 µM

Sequence of Cytochrome P450 2D6 (P10635 whole entry): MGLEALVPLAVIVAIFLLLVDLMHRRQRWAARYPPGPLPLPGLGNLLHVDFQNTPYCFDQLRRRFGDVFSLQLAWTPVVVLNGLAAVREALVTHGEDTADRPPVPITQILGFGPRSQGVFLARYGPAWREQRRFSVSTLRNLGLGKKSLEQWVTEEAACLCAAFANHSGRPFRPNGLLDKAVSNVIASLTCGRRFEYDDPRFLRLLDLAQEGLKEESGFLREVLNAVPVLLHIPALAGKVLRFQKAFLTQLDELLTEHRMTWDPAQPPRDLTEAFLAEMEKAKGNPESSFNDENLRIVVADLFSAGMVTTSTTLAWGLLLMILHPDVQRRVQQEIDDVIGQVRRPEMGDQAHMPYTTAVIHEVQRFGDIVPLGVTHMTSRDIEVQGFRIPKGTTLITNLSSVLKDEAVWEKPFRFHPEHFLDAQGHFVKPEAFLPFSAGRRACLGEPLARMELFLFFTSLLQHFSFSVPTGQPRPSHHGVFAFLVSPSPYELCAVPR

O=C(c1ccccc1C(F)(F)F)N1CCC(Cc2ccccc2)CC1
Not Active: IC50 (Cytochrome P450 2D6) | Ki (Cytochrome P450 2D6) | IC50 [1] | IC50 (Adenosine receptor A1) | IC50 [2] | IC50 [3] | Ki [3] | IC50 [4] | Ki [4] | IC50 [5] | Ki [5]

O=c1cc(N2CCOCC2)oc2c(-c3ccccc3)cccc12 [LY-294002]
Not Active: IC50 (Cytochrome P450 2D6) | Ki (Cytochrome P450 2D6) | IC50 [1] | IC50 (Adenosine receptor A1) | IC50 [2] | IC50 [3] | Ki [3] | IC50 [4] | Ki [4] | IC50 [5] | Ki [5]

N=C(N)NC(=O)Cc1c(Cl)cccc1Cl [GUANFACINE]
Not Active: IC50 (Cytochrome P450 2D6) | Ki (Cytochrome P450 2D6) | IC50 [1] | IC50 (Adenosine receptor A1) | IC50 [2] | IC50 [3] | Ki [3] | IC50 [4] | Ki [4] | IC50 [5] | Ki [5]

NC(=O)C[S+]([O-])C(c1ccccc1)c1ccccc1 (configuration not stated) [MODAFINIL]
Not Active: IC50 (Cytochrome P450 2D6) | Ki (Cytochrome P450 2D6) | IC50 [1] | IC50 (Adenosine receptor A1) | IC50 [2] | IC50 [3] | Ki [3] | IC50 [4] | Ki [4] | IC50 [5] | Ki [5]

CC(C)(C)NC(=O)[C@H]1CC[C@H]2[C@@H]3CC[C@H]4NC(=O)C=C[C@]4(C)[C@H]3CC[C@]12C [FINASTERIDE]
Not Active: IC50 (Cytochrome P450 2D6) | Ki (Cytochrome P450 2D6) | IC50 [1] | IC50 (Adenosine receptor A1) | IC50 [2] | IC50 [3] | Ki [3] | IC50 [4] | Ki [4] | IC50 [5] | Ki [5]

CC(C)NNC(=O)c1ccncc1 [IPRONIAZID]
Not Active: IC50 (Cytochrome P450 2D6) | Ki (Cytochrome P450 2D6) | IC50 [1] | IC50 (Adenosine receptor A1) | IC50 [2] | IC50 [3] | Ki [3] | IC50 [4] | Ki [4] | IC50 [5] | Ki [5]

GRAMICIDIN
Not Active: IC50 (Cytochrome P450 2D6) | Ki (Cytochrome P450 2D6) | IC50 [1] | Ki [1] | IC50 (Adenosine receptor A1) | Ki (Adenosine receptor A1) | IC50 [2] | Ki [2] | IC50 [3] | Ki [3] | IC50 [4] | Ki [4] | IC50 [5] | Ki [5]

O=C(N/N=C/c1ccc([N+](=O)[O-])o1)c1cc([N+](=O)[O-])cc([N+](=O)[O-])c1O [NIFURSOL]
Not Active: IC50 (Cytochrome P450 2D6) | Ki (Cytochrome P450 2D6) | IC50 [1] | IC50 (Adenosine receptor A1) | IC50 [2] | IC50 [3] | Ki [3] | IC50 [4] | Ki [4] | IC50 [5] | Ki [5]

Oc1cccc(O)c1O [PYROGALLOL]
Not Active: IC50 (Cytochrome P450 2D6) | Ki (Cytochrome P450 2D6) | IC50 [1] | IC50 (Adenosine receptor A1) | IC50 [2] | IC50 [3] | Ki [3] | IC50 [4] | Ki [4] | IC50 [5] | Ki [5]

COc1cc2nc(N3CCN(C(=O)c4ccco4)CC3)nc(N)c2cc1OC [PRAZOSIN]
Not Active: IC50 (Cytochrome P450 2D6) | Ki (Cytochrome P450 2D6) | IC50 [1] | IC50 (Adenosine receptor A1) | IC50 [2] | IC50 [3] | Ki [3] | IC50 [4] | Ki [4] | IC50 [5] | Ki [5]

NNc1nncc2ccccc12 [HYDRALAZINE]
Not Active: IC50 (Cytochrome P450 2D6) | Ki (Cytochrome P450 2D6) | IC50 [1] | IC50 (Adenosine receptor A1) | IC50 [2] | IC50 [3] | Ki [3] | IC50 [4] | Ki [4] | IC50 [5] | Ki [5]

C[C@]12C=CC(=O)C=C1CC[C@@H]1[C@@H]2[C@@H](O)C[C@@]2(C)[C@H]1CC[C@]2(O)C(=O)CO [PREDNISOLONE]
Not Active: IC50 (Cytochrome P450 2D6) | Ki (Cytochrome P450 2D6) | IC50 [1] | IC50 (Adenosine receptor A1) | IC50 [2] | IC50 [3] | Ki [3] | IC50 [4] | Ki [4] | IC50 [5] | Ki [5]

O=C1O[C@H]([C@@H](O)CO)C(O)=C1O [ASCORBIC ACID]
Not Active: IC50 (Cytochrome P450 2D6) | Ki (Cytochrome P450 2D6) | IC50 [1] | IC50 (Adenosine receptor A1) | IC50 [2] | IC50 [3] | Ki [3] | IC50 [4] | Ki [4] | IC50 [5] | Ki [5]

C[n+]1ccccc1/C=N/O.[Cl-] [PRALIDOXIME CHLORIDE]
Not Active: IC50 (Cytochrome P450 2D6) | Ki (Cytochrome P450 2D6) | IC50 [1] | IC50 (Adenosine receptor A1) | IC50 [2] | IC50 [3] | Ki [3] | IC50 [4] | Ki [4] | IC50 [5] | Ki [5]

From ChEMBL document CHEMBL1909046, “DrugMatrix in vitro pharmacology data”
